Assay results reported in publication PMC10950963, “Anti-leishmanial activity of Eleutherine plicata Herb. and predictions of isoeleutherin and its analogues” (Frontiers in Chemistry, 2024).
Values after ≈ are worked out from the molar mass of the structure shown. “Also recorded” adds a separate entry of the source. Like-named read-outs stand apart in the source and are kept apart here.

Tests used:
[1] = tested on: amastigotes of L. amazonensis; design: method as in Cunha-Junior et al., 2011; settings: ref Cunha-Junior et al., 2011; cited from earlier work
[2] = Cytotoxicity to macrophages; type: cell-based, mice; settings: BALB/c, mouse, peritoneal macrophages
Th cells = tested on: Th cells; design: method as in Hong et al., 2008; settings: ref Hong et al., 2008; cited from earlier work
[3] = tested on: amastigotes of L. donovani; settings: ref Kaiser et al., 2000; cited from earlier work
[4] = tested on: promastigotes of L. amazonensis; test: Inhibition of growth/viability of L. amazonensis promastigotes (MTT); type: cell-based; settings: Leishmania amazonensis
Protocol: Inhibition of Leishmania growth was evaluated in vitro by cultivating promastigotes of L. amazonensis in stationary phase (5×10^6 parasites) in the presence of the extract, fractions and isoeleutherin (200–3.125 μg/mL) in 96-well culture plates (Nunc, Nunclon®, Roskilde, Denmark), for 72 h at 26°C. Viability was assessed by measuring the cleavage of MTT [3-(4,5-dimethylthiazol-2-yl)-2,5-diphenyl tetrazolium bromide] (Sigma) ([Ngure et al., 2009]). Absorbances were measured using a multiwell scanning spectrophotometer (Molecular Devices, Spectra Max Plus, Canada) at 490 nm. Amphotericin B (AmpB) was used as a positive control (25–0.3906 μg/mL). The concentration of products required to inhibit 50% of the viability of L. amazonensis (IC50) was determined by applying a sigmoidal regression of the individual concentration response curves of the compounds. The data are representative of independent experiments, carried out in triplicate, which presented similar results ([Mota et al., 2011]).

[5] = tested on: intracellular amastigote forms of L. amazonensis; test: Anti-amastigote assay in infected murine macrophages (Giemsa count); type: cell-based, Leishmania amazonensis; settings: 500, 250 and 125 μg/mL, 72 h
Protocol: Murine macrophages (4 × 10^5 cells) were seeded on round glass coverslips into 24-well culture plates (Nunc) in RPMI 1640 medium (Sigma and Aldrich), supplemented with 20% fetal bovine serum (FBS), 2 mM L-glutamine, penicillin 50 IU/mL, and streptomycin 50 μg/mL, pH 7.4. After 24 h of incubation at 35°C in 5% CO2, promastigotes of L. amazonensis in stationary phase were added to the wells (4 × 10^6 parasites) to promote infection of macrophages, and the cultures were incubated for 4 h at 35°C in 5% CO2. Next, the free parasites were removed by extensive washing with RPMI 1640 medium, and the infected macrophages were quantified and treated with the extract, FA2, FA3, fraction FA4, and isoeleutherin (500–125 μg/mL, each) for 72 h at 35°C in 5% CO2. The negative control consisted of infected macrophages and culture medium. The positive control used AmpB (100–25 μg/mL). Then, coverslips were stained with Giemsa, and the percentage of inhibition of intramacrophage viability of Leishmania was determined by counting the number of amastigotes per 100 macrophages on each coverslip, under a light microscope (×100 magnification). The presented data were performed in triplicate, and the IC50 was determined using GraphPad Prism version 5.04 ([Silva, 2005]).

[6] = tested on: peritoneal macrophages from BALB/c mice; test: Cytotoxicity to macrophages; type: cell-based; settings: peritoneal macrophages from BALB/c mice
[7] = tested on: Plasmodium falciparum sensitive to chloroquine; design: method as in Vale et al., 2020; settings: ref Vale et al., 2020; cited from earlier work
HepG2 = tested on: HepG2; design: method as in Gomes et al., 2021; settings: exposure for 24 h, compared with EEEp and FDMEp; ref Gomes et al., 2021; cited from earlier work
[8] = compared with EEEp and FDCMEp, ref Albuquerque et al., 2023, cited from earlier work
Allium cepa = tested on: Allium cepa; design: method as in Castro et al., 2021a; settings: Allium cepa model, 12.5 μg/mL in 72 h; ref Castro et al., 2021a; cited from earlier work

In the case of O=C1C2=C(C(=O)c3ccccc31)[C@H]1Oc3ccccc3[C@H]1CO2 [LQB-118], the “reduction in the number of amastigotes of L. amazonensis” value [1] is given as “concentration-dependent reduction”.

With C[C@@H]1[C@H](O)[C@@H](C)/C=C/C=C/C=C/C=C/C=C/C=C/C=C/[C@H](O[C@@H]2O[C@H](C)[C@@H](O)[C@H](N)[C@@H]2O)C[C@@H]2O[C@](O)(C[C@@H](O)C[C@@H](O)[C@H](O)CC[C@@H](O)C[C@@H](O)CC(=O)O[C@H]1C)C[C@H](O)[C@H]2C(=O)O [Amphotericin B, reference compound] the CC50 [2] was > 100 µg/mL.

In the case of Cc1cc(=O)c2c(C)cc3cc(O)cc(O)c3c2o1 [eleutherinol, reference compound], the “effect on cytokine production of Th cells” value (Th cells) is given as “inhibited the production of IFNc and IL-2”.

In the case of O=C1C=C(C2=CC(=O)c3cccc(O)c3C2=O)C(=O)c2c(O)cccc21 [3,3-Bijuglone], the “IC50 for amastigotes of L. donovani” value [3] is listed as 15 µg/mL.

For COc1cccc2c1C(=O)C1=C(C[C@@H](C)O[C@@H]1C)C2=O [Isoeleutherin, isoeleutherin], the IC50 ([4]; parasite form not given, sentence on selectivity index, read-out: IC50 against L. amazonensis) was > 200 µg/mL, the IC50 ([4]; promastigotes, 72 h at 26°C, MTT, read-out: IC50 against promastigote form of L. amazonensis) was 25 µg/mL (≈ 91.8 µM) and the “anti-amastigote activity (number of amastigotes in infected macrophages vs negative control)” value [5] was “No reductions in the number of amastigotes; also recorded: inactive”. For the same molecule, the CC50 [2] was > 500 µg/mL, the “cytotoxicity on macrophages (in words)” value [6] was “did not show cytotoxicity; also recorded: no cytotoxicity” and the “activity in Plasmodium falciparum” value [7] was “active”. For the same molecule, the “cytotoxicity in HepG2” value (HepG2) was “the least toxic sample”, the “effect on cytokine production of Th cells” value (Th cells) was “selectively stimulating IFNc production” and the “genotoxicity / cytotoxicity in the micronucleus test” value [8] was “lowest cytotoxicity”. The “genotoxicity / cytotoxicity in the micronucleus test” value ([8]; listed as is eleutherin) was “less genotoxic”.

For CC1=C(C2=C(C)C(=O)c3ccc(OCc4ccccc4)c(O)c3C2=O)C(=O)c2c(ccc(OCc3ccccc3)c2O)C1=O [6,6-Dibenzyloxy-3,3-bi-plumbagin], the “IC50 for amastigotes of L. donovani” value [3] is listed as 14.2 µg/mL.

In the case of COc1cccc2c1C(=O)C1=C(C[C@H](C)O[C@@H]1C)C2=O [eleutherin], the “percentage of chromosomal aberrations” value (Allium cepa) is given as “higher percentage of chromosomal aberrations than isoeleutherin”.
